Measurements: ChEMBL document CHEMBL1201861, “Genomics of Drug Sensitity in Cancer screening data, Wellcome Trust Sanger Institute”
Counter-ions that a name gives are not always drawn.

How the values were obtained:
Assay in all cases: cells
[1] = test system: COLO-800; assay type: functional, cell-based, Homo sapiens; settings: Homo sapiens, COLO-800;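 also: growth inhibition of COLO-800 cells, read out with a cell viability assay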
Description: SANGER: Inhibition of human COLO-800 cell growth in a cell viability assay.

[2] = test system: CTV-1; assay type: functional, cell-based, Homo sapiens; settings: Homo sapiens, CTV-1;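 also: growth inhibition of the cell line, read out with a cell viability assay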
Description: SANGER: Inhibition of human CTV-1 cell growth in a cell viability assay.

[3] = test system: Calu-6; assay type: functional, cell-based, Homo sapiens; settings: Homo sapiens, Calu-6;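 also: growth of human Calu-6 cells, read out by a cell viability assay, IC50 marking inhibition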
Description: SANGER: Inhibition of human Calu-6 cell growth in a cell viability assay.

[4] = test system: D-502MG; assay type: functional, cell-based, Homo sapiens; settings: Homo sapiens, D-502MG
Description: SANGER: Inhibition of human D-502MG cell growth in a cell viability assay.

[5] = test system: ES6; assay type: functional, cell-based, Homo sapiens; settings: Homo sapiens, ES6;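 also: growth inhibition of human ES6 cells, read out with a cell viability assay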
Description: SANGER: Inhibition of human ES6 cell growth in a cell viability assay.

[6] = test system: ES8; assay type: functional, cell-based, Homo sapiens; settings: Homo sapiens, ES8;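 also: growth inhibition of human ES8 cells, read out with a cell viability assay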
Description: SANGER: Inhibition of human ES8 cell growth in a cell viability assay.

[7] = test system: ETK-1; assay type: functional, cell-based, Homo sapiens; settings: Homo sapiens, ETK-1;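 also: growth inhibition of human ETK-1 cells, read out with a cell viability assay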
Description: SANGER: Inhibition of human ETK-1 cell growth in a cell viability assay.

[8] = test system: EW-1; assay type: functional, cell-based, Homo sapiens; settings: Homo sapiens, EW-1;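 also: growth inhibition of the human EW-1 cell line, read out by a cell viability assay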
Description: SANGER: Inhibition of human EW-1 cell growth in a cell viability assay.

[9] = test system: EW-3; assay type: functional, cell-based, Homo sapiens; settings: Homo sapiens, EW-3;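 also: cell viability assay read-out, IC50 reflects inhibition of growth of the EW-3 cells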
Description: SANGER: Inhibition of human EW-3 cell growth in a cell viability assay.

[10] = test system: GCIY; assay type: functional, cell-based, Homo sapiens; settings: Homo sapiens, GCIY;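 also: growth inhibition of the human GCIY cell line, read out by a cell viability assay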
Description: SANGER: Inhibition of human GCIY cell growth in a cell viability assay.

[11] = test system: GI-1; assay type: functional, cell-based, Homo sapiens; settings: Homo sapiens, GI-1;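 also: growth inhibition of human GI-1 cells, measured with a cell viability readout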
Description: SANGER: Inhibition of human GI-1 cell growth in a cell viability assay.

[12] = test system: GOTO; assay type: functional, cell-based, Homo sapiens; settings: Homo sapiens, GOTO;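 also: growth inhibition of GOTO cells, read out by a cell viability assay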
Description: SANGER: Inhibition of human GOTO cell growth in a cell viability assay.

[13] = test system: GT3TKB; assay type: functional, cell-based, Homo sapiens; settings: Homo sapiens, GT3TKB;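 also: growth inhibition of the cell line, read out with a cell viability assay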
Description: SANGER: Inhibition of human GT3TKB cell growth in a cell viability assay.

[14] = test system: HCC2157; assay type: functional, cell-based, Homo sapiens; settings: Homo sapiens, HCC2157;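 also: growth inhibition of the cancer cell line, read out as cell viability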
Description: SANGER: Inhibition of human HCC2157 cell growth in a cell viability assay.

[15] = test system: HCE-4; assay type: functional, cell-based, Homo sapiens; settings: Homo sapiens, HCE-4;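 also: cell viability assay measuring inhibition of growth in the human HCE-4 cell line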
Description: SANGER: Inhibition of human HCE-4 cell growth in a cell viability assay.

[16] = test system: HCE-T; assay type: functional, cell-based, Homo sapiens; settings: Homo sapiens, HCE-T;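 also: cell viability assay read-out, reporting inhibition of HCE-T cell growth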
Description: SANGER: Inhibition of human HCE-T cell growth in a cell viability assay.

[17] = test system: HEL; assay type: functional, cell-based, Homo sapiens; settings: Homo sapiens, HEL;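 also: growth inhibition of HEL cells, read out with a cell viability assay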
Description: SANGER: Inhibition of human HEL cell growth in a cell viability assay.

[18] = test system: KLE; assay type: functional, cell-based, Homo sapiens; settings: Homo sapiens, KLE;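 also: growth inhibition of human KLE cells, read out with a cell viability assay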
Description: SANGER: Inhibition of human KLE cell growth in a cell viability assay.

[19] = test system: KP-N-YS; assay type: functional, cell-based, Homo sapiens; settings: Homo sapiens, KP-N-YS;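 also: cell viability assay measuring inhibition of cell line growth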
Description: SANGER: Inhibition of human KP-N-YS cell growth in a cell viability assay.

[20] = test system: L-428; assay type: functional, cell-based, Homo sapiens; settings: Homo sapiens, L-428
Description: SANGER: Inhibition of human L-428 cell growth in a cell viability assay.

[21] = test system: LB1047-RCC; assay type: functional, cell-based, Homo sapiens; settings: Homo sapiens, LB1047-RCC;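 also: inhibition of cell growth, determined with a cell viability assay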
Description: SANGER: Inhibition of human LB1047-RCC cell growth in a cell viability assay.

[22] = test system: LU-139; assay type: functional, cell-based, Homo sapiens; settings: Homo sapiens, LU-139
Description: SANGER: Inhibition of human LU-139 cell growth in a cell viability assay.

[23] = test system: Lu-65; assay type: functional, cell-based, Homo sapiens; settings: Homo sapiens, Lu-65;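 also: growth inhibition of Lu-65 cancer cells, read out by a cell viability assay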
Description: SANGER: Inhibition of human LU-65 cell growth in a cell viability assay.

[24] = test system: ML-2; assay type: functional, cell-based, Homo sapiens; settings: Homo sapiens, ML-2;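 also: growth inhibition of ML-2 cells, measured with a cell viability readout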
Description: SANGER: Inhibition of human ML-2 cell growth in a cell viability assay.

[25] = test system: MZ1-PC; assay type: functional, cell-based, Homo sapiens; settings: Homo sapiens, MZ1-PC;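 also: cell viability assay measuring growth inhibition of human MZ1-PC cells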
Description: SANGER: Inhibition of human MZ1-PC cell growth in a cell viability assay.

[26] = test system: NB10; assay type: functional, cell-based, Homo sapiens; settings: Homo sapiens, NB10;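 also: growth inhibition of NB10 cells, read out by a cell viability assay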
Description: SANGER: Inhibition of human NB10 cell growth in a cell viability assay.

[27] = test system: NB13; assay type: functional, cell-based, Homo sapiens; settings: Homo sapiens, NB13;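 also: cell viability readout measuring growth inhibition of human NB13 cells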
Description: SANGER: Inhibition of human NB13 cell growth in a cell viability assay.

[28] = test system: NB69; assay type: functional, cell-based, Homo sapiens; settings: Homo sapiens, NB69;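 also: growth inhibition of NB69 cells, determined by a cell viability assay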
Description: SANGER: Inhibition of human NB69 cell growth in a cell viability assay.

[29] = test system: NCI-H1299; assay type: functional, cell-based, Homo sapiens; settings: Homo sapiens, NCI-H1299;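 also: growth inhibition of human NCI-H1299 cells, read out by a cell viability assay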
Description: SANGER: Inhibition of human NCI-H1299 cell growth in a cell viability assay.

[30] = test system: NCI-H1650; assay type: functional, cell-based, Homo sapiens; settings: Homo sapiens, NCI-H1650;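 also: growth inhibition of human NCI-H1650 cells measured by a cell viability assay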
Description: SANGER: Inhibition of human NCI-H1650 cell growth in a cell viability assay.

[31] = test system: NCI-H1770; assay type: functional, cell-based, Homo sapiens; settings: Homo sapiens, NCI-H1770;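 also: growth inhibition of NCI-H1770 cells determined with a viability readout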
Description: SANGER: Inhibition of human NCI-H1770 cell growth in a cell viability assay.

[32] = test system: NCI-H209; assay type: functional, cell-based, Homo sapiens; settings: Homo sapiens, NCI-H209;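 also: growth inhibition of human NCI-H209 cells, measured by a cell viability assay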
Description: SANGER: Inhibition of human NCI-H209 cell growth in a cell viability assay.

[33] = test system: NCI-H2126; assay type: functional, cell-based, Homo sapiens; settings: Homo sapiens, NCI-H2126;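 also: growth inhibition of the cancer cell line, determined with a cell viability readout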
Description: SANGER: Inhibition of human NCI-H2126 cell growth in a cell viability assay.

[34] = test system: NCI-H226; assay type: functional, cell-based, Homo sapiens; settings: Homo sapiens, NCI-H226;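 also: cell viability read-out used to gauge growth inhibition of the cells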
Description: SANGER: Inhibition of human NCI-H226 cell growth in a cell viability assay.

[35] = test system: NCI-H446; assay type: functional, cell-based, Homo sapiens; settings: Homo sapiens, NCI-H446;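 also: growth inhibition of NCI-H446 cells determined by a cell viability assay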
Description: SANGER: Inhibition of human NCI-H446 cell growth in a cell viability assay.

[36] = test system: NCI-N87; assay type: functional, cell-based, Homo sapiens; settings: Homo sapiens, NCI-N87;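 also: growth inhibition of human NCI-N87 cells, read out with a cell viability assay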
Description: SANGER: Inhibition of human NCI-N87 cell growth in a cell viability assay.

[37] = test system: NEC8; assay type: functional, cell-based, Homo sapiens; settings: Homo sapiens, NEC8;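 also: growth inhibition of human NEC8 cells, read out by a cell viability assay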
Description: SANGER: Inhibition of human NEC8 cell growth in a cell viability assay.

[38] = test system: RCC10RGB; assay type: functional, cell-based, Homo sapiens; settings: Homo sapiens, RCC10RGB;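 also: growth inhibition of human RCC10RGB cells, read out by a cell viability assay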
Description: SANGER: Inhibition of human RCC10RGB cell growth in a cell viability assay.

[39] = test system: SCH; assay type: functional, cell-based, Homo sapiens; settings: Homo sapiens, SCH;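 also: growth inhibition of human SCH cells, read out in a cell viability assay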
Description: SANGER: Inhibition of human SCH cell growth in a cell viability assay.

[40] = test system: SF-126; assay type: functional, cell-based, Homo sapiens; settings: Homo sapiens, SF-126;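 also: growth inhibition of human SF126 cells, read out with a cell viability assay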
Description: SANGER: Inhibition of human SF126 cell growth in a cell viability assay.

[41] = test system: SHP77; assay type: functional, cell-based, Homo sapiens, SHP-77; settings: Homo sapiens, SHP77;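 also: growth inhibition of human SHP-77 cells measured by a cell viability assay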
Description: SANGER: Inhibition of human SHP-77 cell growth in a cell viability assay.

[42] = test system: SK-LMS-1; assay type: functional, cell-based, Homo sapiens; settings: Homo sapiens, SK-LMS-1;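 also: growth inhibition of human SK-LMS-1 cells, read out with a cell viability assay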
Description: SANGER: Inhibition of human SK-LMS-1 cell growth in a cell viability assay.

[43] = test system: SK-MEL-1; assay type: functional, cell-based, Homo sapiens; settings: Homo sapiens, SK-MEL-1;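 also: growth inhibition of human SK-MEL-1 cells, read out by a cell viability assay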
Description: SANGER: Inhibition of human SK-MEL-1 cell growth in a cell viability assay.

[44] = test system: A4-Fuk; assay type: functional, cell-based, Homo sapiens; settings: Homo sapiens, A4-Fuk;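 also: growth inhibition of A4-Fuk cells, read out by a cell viability assay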
Description: SANGER: Inhibition of human A4-Fuk cell growth in a cell viability assay.

[45] = test system: AM-38; assay type: functional, cell-based, Homo sapiens; settings: Homo sapiens, AM-38;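 also: growth inhibition of AM-38 cells of human origin, read out by a cell viability assay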
Description: SANGER: Inhibition of human AM-38 cell growth in a cell viability assay.

[46] = test system: ATN-1; assay type: functional, cell-based, Homo sapiens; settings: Homo sapiens, ATN-1;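 also: growth inhibition of human ATN-1 cells, read out with a cell viability assay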
Description: SANGER: Inhibition of human ATN-1 cell growth in a cell viability assay.

[47] = test system: BE-13; assay type: functional, cell-based, Homo sapiens; settings: Homo sapiens, BE-13;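 also: growth inhibition of human BE-13 cells, measured with a cell viability assay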
Description: SANGER: Inhibition of human BE-13 cell growth in a cell viability assay.

[48] = test system: BV-173; assay type: functional, cell-based, Homo sapiens; settings: Homo sapiens, BV-173
Description: SANGER: Inhibition of human BV-173 cell growth in a cell viability assay.

[49] = test system: Becker; assay type: functional, cell-based, Homo sapiens; settings: Homo sapiens, Becker;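 also: growth inhibition of Becker cells, read out with a cell viability assay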
Description: SANGER: Inhibition of human Becker cell growth in a cell viability assay.

[50] = test system: TE-12; assay type: functional, cell-based, Homo sapiens; settings: Homo sapiens, TE-12;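 also: growth inhibition of TE-12 cells, read out by a cell viability assay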
Description: SANGER: Inhibition of human TE-12 cell growth in a cell viability assay.

COC1=CC(c2cc3ccccc3[nH]2)=N/C1=C\c1[nH]c(C)cc1C [OBATOCLAX MESYLATE]
IC50 [1]: 5.19 µM
IC50 [2]: 75.2 nM
IC50 [3]: 90.3 nM
IC50 [4]: 6.32 µM
IC50 [5]: 144 nM
IC50 [6]: 116 nM
IC50 [7]: 56.7 nM
IC50 [8]: < 62.5 nM
IC50 [9]: 3.41 µM
IC50 [10]: 310 nM
IC50 [11]: 275 nM
IC50 [12]: 4.3 µM
IC50 [13]: 163 nM
IC50 [14]: 1140 nM
IC50 [15]: 203 nM
IC50 [16]: 125 nM
IC50 [17]: 154 nM
IC50 [18]: 1660 nM
IC50 [19]: 789 nM
IC50 [20]: 370 nM
IC50 [21]: 358 nM
IC50 [22]: 6.08 µM
IC50 [23]: 1090 nM
IC50 [24]: 229 nM
IC50 [25]: 108 nM
IC50 [26]: 2820 nM
IC50 [27]: 64.2 nM
IC50 [28]: 15.7 nM
IC50 [29]: 61.3 nM
IC50 [30]: 3.78 µM
IC50 [31]: 47 nM
IC50 [32]: 3.68 µM
IC50 [33]: 2230 nM
IC50 [34]: 66.3 nM
IC50 [35]: 950 nM
IC50 [36]: 4.39 µM
IC50 [37]: 55.9 nM
IC50 [38]: 1140 nM
IC50 [39]: > 16 µM
IC50 [40]: 273 nM
IC50 [41]: 2010 nM
IC50 [42]: 314 nM
IC50 [43]: > 16 µM
IC50 [44]: 89.5 nM
IC50 [45]: 192 nM
IC50 [46]: 167 nM
IC50 [47]: 129 nM
IC50 [48]: 1830 nM
IC50 [49]: 1640 nM
IC50 [50]: 333 nM
